The text below walks through data of ChEMBL document CHEMBL2429839, “Synthesis and characterization of 2-(4-((1-alkyl or aryl-1H-1,2,3-triazol-4-yl)methoxy)phenyl)naphtho[1,2-d]oxazoles for protein tyrosine phosphatase 1B inhibitory activity” (Med Chem Res, 2013).

The test system of one test is A549. As to the kind of experiment: Cytotoxicity against human A549 cells after 24 hrs by MTT assay. In kind it is cell-based. To be noted: A549, 24 h. On the technique in general: Tetrazolium assays rely on reduction of a dye to a coloured formazan, in cell work by metabolically active cells.
The target of test [1] is T1, Tyrosine-protein phosphatase non-receptor type 1 (Rattus norvegicus, UniProt P20417).
T1 sequence (P20417 whole entry): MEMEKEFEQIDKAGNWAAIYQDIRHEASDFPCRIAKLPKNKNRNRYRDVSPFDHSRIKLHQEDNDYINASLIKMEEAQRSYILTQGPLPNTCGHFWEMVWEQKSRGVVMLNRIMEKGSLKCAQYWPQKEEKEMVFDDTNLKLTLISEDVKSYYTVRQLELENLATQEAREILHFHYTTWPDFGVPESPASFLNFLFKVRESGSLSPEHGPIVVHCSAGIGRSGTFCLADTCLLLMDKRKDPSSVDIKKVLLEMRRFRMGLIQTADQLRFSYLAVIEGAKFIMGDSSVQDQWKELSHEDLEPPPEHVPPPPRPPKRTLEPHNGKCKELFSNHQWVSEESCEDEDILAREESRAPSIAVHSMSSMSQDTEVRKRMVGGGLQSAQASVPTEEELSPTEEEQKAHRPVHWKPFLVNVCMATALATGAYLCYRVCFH
The test is described as follows: (§1) Inhibition of PTP1B in rat liver homogenates using p-nitro phenyl phosphate as substrate preincubated for 30 mins followed by substrate addition measured after 10 mins. Type of test: tissue-based.

Test [2] concerns the target T2, Tyrosine-protein phosphatase non-receptor type 1 (Rattus norvegicus) (UniProt P20417).
T2 sequence (whole entry): T1 sequence (P20417 whole entry)
The test is described as §1. In kind it is tissue-based.

Test [3] concerns the target T2, Tyrosine-protein phosphatase non-receptor type 1 (Rattus norvegicus). As to the kind of experiment: (§2) Inhibition of PTP1B in rat liver homogenates using p-nitro phenyl phosphate as substrate at 10 uM preincubated for 30 mins followed by substrate addition measured after 10 mins relative to control. In kind it is tissue-based.
The next test has as its system HEK293. As to the kind of experiment: Cytotoxicity against HEK293 cells after 24 hrs by MTT assay. Type of test: cell-based. The following applies: Homo sapiens, HEK293, 24 h.
Test [4] has as its system Rattus norvegicus. The test is described as follows: Antidiabetic activity in Sprague-Dawley albino rat assessed as inhibition of blood glucose level at 50 mg/kg, ip administered 10 mins prior to oral glucose challenge measured after 10 mins by glucometer relative to control. Type of test: functional.
The target of test [5] is Tyrosine-protein phosphatase non-receptor type 1 (Rattus norvegicus) (UniProt P20417). The test is described as §2. In kind it is tissue-based. This is another data set of the same source.
Test [6] has as its system Rattus norvegicus. As to the kind of experiment: Antidiabetic activity in Sprague-Dawley albino rat assessed as inhibition of blood glucose level at 300 mg/kg, ip administered 10 mins prior to oral glucose challenge measured after 10 mins by glucometer relative to control. Type of test: functional.

The IC50 is the midpoint of a concentration-inhibition curve. Lower therefore signals higher potency. Broadly, the inhibition is the relative decrease from the control value, in per cent. In general, inhibition in vivo refers to the share of the control response that was lost under treatment. Consider `Cc1ccc(-n2cc(COc3ccc(-c4nc5c(ccc6ccccc65)o4)cc3)nn2)cc1`, for which the IC50 in the test with A549 was more than 1000 µM; in test [1], 20.4 µM; in the test on HEK293 it was more than 1000 µM. Also, the inhibition entry in test [2] is “Dose-dependent effect”; in test [3], 41.6%. In addition, in the test with Rattus norvegicus [4], the inhibition in vivo at 50 mg/kg worked out at 62.6%.
For the compound `FC(F)(F)c1ccc(-n2cc(COc3ccc(-c4nc5c(ccc6ccccc65)o4)cc3)nn2)cc1`, the results for the half-inhibitory concentration (IC50) (in the test with A549; in test [1]; in the test with HEK293) were more than 1000 µM, 8.61 µM and more than 1000 µM, respectively. The inhibition entry was “Dose-dependent effect” in test [2] and 68.3% in test [3]. For the same compound, the inhibition in vivo at 50 mg/kg in the test on Rattus norvegicus [4] stood at 78.6%.
Consider `COc1cccc2c1C(=O)c1c(O)c3c(c(O)c1C2=O)C[C@@](O)(C(=O)CO)C[C@@H]3O[C@H]1C[C@H](N)[C@H](O)[C@H](C)O1` [DOXORUBICIN], for which the IC50 was 3.98 µM in the test on A549 and 1.01 µM in the test on HEK293.
Consider SODIUM ORTHOVANAD, for which the inhibition in test [5] was found to be 60.7%.
With `CN(C)C(=N)NC(=N)N` [METFORMIN], the inhibition in vivo at 300 mg/kg in the test with Rattus norvegicus [6] was 57.1%.
